Data as given in patent publication US7605168B2 (Plexxikon, Inc., priority 2004, dated 2009).
pIC50: −log10 of the molar value.

Assays:
[1] = molecular target: T1, PDE4B: catalytic domain of human PDE4B from S152-S528 (Homo sapiens, UniProt Q07343); assay: PDE4 IC50 determination by Scintillation Proximity Assay (SPA), PDE4B catalytic domain; assay type: biochemical; conditions: [3H]cAMP SPA, 30 min at 30° C.
T1 construct: The catalytic domain of human PDE4B from S152-S528; His6 (N, cleaved yes); thrombin cleavage site (N, cleaved yes); made in house; host or cells: E. coli BL21 (DE3) RIL
Procedure: (§1) IC50s were determined by Scintillation Proximity Assay (SPA). The principle of the assay is based on the fact that cAMP, the PDE4 substrate, binds weakly to Yittrium Silicate SPA beads, whereas AMP, the product of PDE4 hydrolysis binds strongly. Thus, the extent of PDE4 hydrolysis of a sample of [^3H]cAMP can be measured because only the [^3H]AMP produced by PDE4 hydrolysis will bind to the SPA beads and produce a scintillation signal.
Enzyme was stored in 50% glycerol at −20°.
(§2) In addition to the compound dilutions, each assay plate contained control wells with 1 μl of DMSO (to define 0% enzyme inhibition) or 1 μl of 200 μM roflumilast (to define 100% enzyme inhibition). Using a Beckman FX robot, 10 μl of [^3H] cAMP (Amersham TRK559) at […] in assay buffer (50 mM Tris, pH 7.5; 8.3 mM MgCl; 1.7 mM EGTA; 0.01% BSA) was transferred to each assay well. Next, 10 μl of PDE4 enzyme in assay buffer was added and the plates were shaken for 30 s. at 1000 rpm to start the cAMP hydrolysis reaction. The concentrations of enzyme used were: PDE4B, 80 ng/ml; PDE4D, 4 ng/ml; PDE4B2, 2.5 μl of 50% glycerol stock/ml; PDE4D5 0.083 μl of 50% glycerol stock/ml. Assay plates were covered and incubated for 30 min. at 30° C. Reactions were stopped by robotic addition of 10 μl of 5 mg/ml SPA beads (Amersham RPNQ0013) in 18 mM ZnSO4. The assay plates were covered with clear plastic film, centrifuged for 1 min. at 1000 RPM to settle the SPA beads, and counted using a Wallac TriLux scintillation counter. IC50's were calculated from the raw assay data by non-linear regression curve fitting using the Assay Explorer software package from MDL.

[2] = system: TNF-α release from whole blood cultures stimulated with LPS; assay: IC50 by TNF alpha production upon stimulation of whole blood cultures with LPS; assay type: cell-based; conditions: human whole blood (buffy coat) culture, 100 ng/ml LPS, 4 hours; read-out: h TNFα IC50
Procedure: Compounds were assayed to generate IC50 numbers based on the inhibition of TNF-α release from whole blood cultures, using the following assay protocol (see Table 5 for compounds tested and results). Inhibition of PDE4B results in the inhibition of TNF-α release by whole blood cultures stimulated with lipopolysaccharide (LPS). The measurement of TNF-α release was used to assess compounds as PDE4B inhibitors.
Compounds were provided in DMSO at 20 mM and 2 μl per well was added to one row of a dilution plate. Added 98 μl of RPMI 1640 media with 2.5% heat inactivated FBS to each well containing compound. The same media with 2% DMSO was prepared and 60 μl was added to each of the empty wells in the dilution plate. The compound was serially diluted 1:3 (30 μl to 60 μl of media) for a total of 8 concentrations per compound. Wells were also prepared with 50 μM roflumilast and piclamilast as 100% inhibition controls, and 2% DMSO in media was used as 0% inhibition control. A 20 μl aliquot of each sample was transferred to an assay plate in duplicate.
Human buffy coat was obtained from the Stanford Medical School Blood Center and diluted with 7 volumes of RPMI 1640 media with 1% penicillin/streptomycin and 2.5% heat inactivated FBS. A 160 μl aliquot of the diluted blood was added to each well of the assay plates, mixed and incubated for 1 hour at 37° C. in 5% CO2. LPS (Sigma catalog number L2637) that had been diluted to 1 mg/ml in PBS and stored as 20 μl aliquots at −20° C. was thawed and diluted 1000× to 1 μg/ml. A 20 μl aliquot of this was added to each sample (final concentration 100 ng/ml LPS) after the 1 hour incubation. A background sample was prepared without addition of LPS as well. The samples were mixed on a shaker for one minute at 900 RPM and incubated for 4 hours at 37° C. in 5% CO2. The plates were then put on a shaker for one minute at 900 RPM, followed by centrifuging at 100×g for 10 minutes, deceleration setting of 5. The top 75 μl of supernatant was carefully pipetted to a new plate and frozen at −20° C.
A 50 μl aliquot of incubation buffer (Biosource International Immunoassay Kit:Human TNF-α catalog number KHC3011) was added to each well of a plate coated with monoclonal antibody specific for hTNF-α (Biosource kit). The supernatant blood samples were thawed and a 50 μl aliquot along with 50 μl of diluent buffer (Biosource kit) were added to incubation buffer and the samples were incubated for 2 hours at room temperature. The samples were washed 4 times with 300 μl/well wash buffer (Biosource kit). A 100 μl aliquot of biotinylated anti-TNFalpha (Biosource kit) was added and the samples incubated for 1 hour at room temperature. The samples were washed 4 times with 300 μl/well wash buffer. A 100 μl aliquot of Streptavidin-HRP solution (BioSource kit) was added and the samples incubated for 30 minutes at room temperature. The samples were washed 4 times with 300 μl/well wash buffer. A 100 μl aliquot of Chromagen (Biosource kit) was added and the samples incubated in the dark for 30 minutes. A 100 μl aliquot of stop solution (2N H2SO4) was added to each sample and samples were read at 450 nm on a WallacVictor for 0.1 sec/well.

[3] = molecular target: T2, PDE4B2: full-length human PDE4B2 isozyme (Homo sapiens, UniProt Q07343); assay: PDE4 IC50 determination by Scintillation Proximity Assay (SPA), full-length PDE4B2; assay type: biochemical; conditions: cell lysate, [3H]cAMP SPA
T2 construct: made in house; host or cells: baculovirus infected insect cells (pFastBacHT)
Procedure: (§3) The enzyme was not purified from the cell lysates, so enzyme concentrations were not determined. Enzyme was stored in 50% glycerol at −20°.
as §1, §2

[4] = molecular target: T3, PDE4D5: full-length human PDE4D5 isozyme (Homo sapiens, UniProt Q08499); assay: PDE4 IC50 determination by Scintillation Proximity Assay (SPA), full-length PDE4D5; assay type: biochemical; conditions: cell lysate, [3H]cAMP SPA
T3 construct: made in house; host or cells: baculovirus infected insect cells (pFastBacHT)
Procedure: as §3, §1, §2

T3 sequence (Q08499 with tags, fused parts or gaps isoform Q08499-6): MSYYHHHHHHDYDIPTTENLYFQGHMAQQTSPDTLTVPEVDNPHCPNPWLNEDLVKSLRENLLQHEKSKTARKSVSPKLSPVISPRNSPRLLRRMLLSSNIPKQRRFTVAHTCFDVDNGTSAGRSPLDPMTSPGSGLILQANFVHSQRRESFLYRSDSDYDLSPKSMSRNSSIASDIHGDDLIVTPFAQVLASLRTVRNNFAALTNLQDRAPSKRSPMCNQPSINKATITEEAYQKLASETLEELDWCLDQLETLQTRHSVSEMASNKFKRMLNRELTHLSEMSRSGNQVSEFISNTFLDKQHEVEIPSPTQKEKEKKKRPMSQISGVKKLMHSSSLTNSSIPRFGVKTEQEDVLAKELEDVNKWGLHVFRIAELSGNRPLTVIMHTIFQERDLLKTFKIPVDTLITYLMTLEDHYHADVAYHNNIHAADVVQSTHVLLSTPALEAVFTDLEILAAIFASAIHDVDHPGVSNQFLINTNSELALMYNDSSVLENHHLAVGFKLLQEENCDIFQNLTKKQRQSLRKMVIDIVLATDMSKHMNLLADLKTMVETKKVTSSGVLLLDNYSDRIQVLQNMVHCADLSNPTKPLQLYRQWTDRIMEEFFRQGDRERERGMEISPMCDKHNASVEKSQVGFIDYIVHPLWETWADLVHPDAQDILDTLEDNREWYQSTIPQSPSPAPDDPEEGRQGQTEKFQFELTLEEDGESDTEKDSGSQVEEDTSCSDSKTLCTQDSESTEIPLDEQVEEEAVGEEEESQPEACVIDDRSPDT
T1 sequence (Q07343 324-700): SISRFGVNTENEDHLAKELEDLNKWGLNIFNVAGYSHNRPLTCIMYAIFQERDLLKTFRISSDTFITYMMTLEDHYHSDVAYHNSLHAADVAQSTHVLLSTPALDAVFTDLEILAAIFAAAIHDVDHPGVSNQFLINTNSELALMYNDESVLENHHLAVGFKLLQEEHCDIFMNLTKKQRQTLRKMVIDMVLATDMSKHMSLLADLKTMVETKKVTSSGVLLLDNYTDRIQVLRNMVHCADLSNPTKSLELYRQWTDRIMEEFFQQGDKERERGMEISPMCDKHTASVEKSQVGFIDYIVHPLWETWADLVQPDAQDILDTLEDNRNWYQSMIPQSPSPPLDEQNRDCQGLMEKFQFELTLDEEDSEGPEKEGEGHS
T2 sequence (Q07343 with tags, fused parts or gaps isoform Q07343-2): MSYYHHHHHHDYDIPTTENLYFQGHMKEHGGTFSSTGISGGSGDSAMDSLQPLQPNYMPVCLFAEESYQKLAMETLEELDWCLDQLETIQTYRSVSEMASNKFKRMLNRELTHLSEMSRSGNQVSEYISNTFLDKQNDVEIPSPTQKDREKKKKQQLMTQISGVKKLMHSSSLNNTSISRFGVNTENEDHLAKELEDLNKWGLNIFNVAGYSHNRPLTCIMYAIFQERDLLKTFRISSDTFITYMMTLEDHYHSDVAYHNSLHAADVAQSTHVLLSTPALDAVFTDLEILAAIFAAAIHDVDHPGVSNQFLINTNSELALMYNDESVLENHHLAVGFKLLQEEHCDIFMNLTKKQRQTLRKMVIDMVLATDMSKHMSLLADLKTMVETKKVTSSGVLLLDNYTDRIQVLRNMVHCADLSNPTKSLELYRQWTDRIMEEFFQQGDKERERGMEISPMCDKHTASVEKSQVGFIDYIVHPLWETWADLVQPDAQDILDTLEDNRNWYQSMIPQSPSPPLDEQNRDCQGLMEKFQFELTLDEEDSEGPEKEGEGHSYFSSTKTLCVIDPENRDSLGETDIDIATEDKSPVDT

Structure (SMILES) | pIC50 [1] | pIC50 [2] | pIC50 [3] | pIC50 [4]
COc1ccc(-c2cn(S(=O)(=O)Cc3ccccc3)c3ncccc23)cc1OC [Compound 8, 3-(3,4-dimethoxy-phenyl)-1-phenylmethanesulfonyl-1H-pyrrolo[2,3-b]pyridine] | > 5.00 | ≥ 5.00 | > 5.00 | > 5.00
COc1ccc(-c2cn(S(=O)(=O)Cc3cccc(Cl)c3)c3ncccc23)cc1OC [Compound 9, 1-(3-chloro-phenylmethanesulfonyl)-3-(3,4-dimethoxy-phenyl)-1H-pyrrolo[2,3-b]pyridine] | > 5.00 | ≥ 5.00 | > 5.00 | > 5.00
COc1ccc(-c2cn(S(=O)(=O)c3ccc4ccccc4c3)c3ncccc23)cc1OC [Compound 11, 3-(3,4-Dimethoxy-phenyl)-1-(naphthalene-2-sulfonyl)-1H-pyrrolo[2,3-b]pyridine] | > 5.00 | ≥ 5.00 | > 5.00 | > 5.00
COc1ccc(-c2cn(S(=O)(=O)c3ccc(C)c4ccccc34)c3ncccc23)cc1OC [Compound 12, 3-(3,4-Dimethoxy-phenyl)-1-(4-methyl-naphthalene-1-sulfonyl)-1H-pyrrolo[2,3-b]pyridine] | > 5.00 | < 5.00 | > 5.00 | > 5.00
COc1ccc(-c2cn(S(=O)(=O)c3cccc4cnccc34)c3ncccc23)cc1OC [Compound 14, 5-[3-(3,4-Dimethoxy-phenyl)-pyrrolo[2,3-b]pyridine-1-sulfonyl]-isoquinoline] | > 5.00 | ≥ 5.00 | > 5.00 | > 5.00
COc1ccc(-c2cn(S(=O)(=O)c3cccc4ccccc34)c3ncccc23)cc1OC [Compound 16, 3-(3,4-Dimethoxy-phenyl)-1-(naphthalene-1-sulfonyl)-1H-pyrrolo[2,3-b]pyridine] | > 5.00 | ≥ 5.00 | > 5.00 | > 5.00
COc1ccc(-c2cn(S(=O)(=O)c3cccc4cccnc34)c3ccccc23)cc1OC [Compound 21, 8-[3-(3,4-dimethoxy-phenyl)-indole-1-sulfonyl]-quinoline] | > 5.00 | ≥ 5.00 | > 5.00 | > 5.00
COc1ccc(-c2cn(C(=O)Nc3ccc(Cl)cc3)c3ncccc23)cc1OC [Compound 26, 3-(3,4-dimethoxy-phenyl)-pyrrolo[2,3-b]pyridine-1-carboxylic acid (4-chloro-phenyl)-amide] | > 5.00 | ≥ 5.00 | > 5.00 | > 5.00

Results, then the compound that gave them:

pIC50 [1] | pIC50 [2] | pIC50 [3] | pIC50 [4] | Structure (SMILES)
> 5.00 | ≥ 5.00 | > 5.00 | > 5.00 | COc1ccc(NC(=O)n2cc(-c3ccc(OC)c(OC)c3)c3cccnc32)cc1Cl [Compound 27, 3-(3,4-Dimethoxy-phenyl)-pyrrolo[2,3-b]pyridine-1-carboxylic acid (3-chloro-4-methoxy-phenyl)-amide]
> 5.00 | ≥ 5.00 | > 5.00 | > 5.00 | COc1cc(NC(=O)n2cc(-c3ccc(OC)c(OC)c3)c3cccnc32)cc(OC)c1 [Compound 29, 3-(3,4-Dimethoxy-phenyl)-pyrrolo[2,3-b]pyridine-1-carboxylic acid (3,5-dimethoxy-phenyl)-amide]
> 5.00 | ≥ 5.00 | > 5.00 | > 5.00 | COc1ccc(-c2cn(C(=O)Nc3cccc(C(C)=O)c3)c3ncccc23)cc1OC [Compound 34, 3-(3,4-Dimethoxy-phenyl)-pyrrolo[2,3-b]pyridine-1-carboxylic acid (3-acetyl-phenyl)-amide]
> 5.00 | ≥ 5.00 | > 5.00 | > 5.00 | COc1ccc(-c2cn(C(=O)Nc3ccc(Cl)c(Cl)c3)c3ncccc23)cc1OC [Compound 37, 3-(3,4-Dimethoxy-phenyl)-pyrrolo[2,3-b]pyridine-1-carboxylic acid (3,4-dichloro-phenyl)-amide]
> 5.00 | < 5.00 | > 5.00 | < 5.00 | COc1ccc(-c2cn(C(=O)Nc3cccc([N+](=O)[O-])c3)c3ncccc23)cc1OC [Compound 38, 3-(3,4-Dimethoxy-phenyl)-pyrrolo[2,3-b]pyridine-1-carboxylic acid (3-nitro-phenyl)-amide]
> 5.00 | ≥ 5.00 | > 5.00 | > 5.00 | COc1ccc(-c2cn(C(=S)Nc3ccccc3)c3ncccc23)cc1OC [Compound 41, 3-(3,4-dimethoxy-phenyl)-pyrrolo[2,3-b]pyridine-1-carbothioic acid phenylamide]
> 5.00 | ≥ 5.00 | > 5.00 | > 5.00 | COc1ncc(-c2cn(S(=O)(=O)c3cccc4cccnc34)c3ncccc23)cn1 [Compound 43, 8-[3-(2-methoxy-pyrimidin-5-yl)-pyrrolo[2,3-b]pyridine-1-sulfonyl]-quinoline]
> 5.00 | < 5.00 | > 5.00 | > 5.00 | CCOc1ccccc1C(=O)n1ccc2c(-c3ccc(OC)c(OC)c3)ccnc21 [Compound 51, [4-(3,4-Dimethoxy-phenyl)-pyrrolo[2,3-b]pyridin-1-yl]-(2-ethoxy-phenyl)-methanone]
– | ≥ 5.00 | > 5.00 | > 5.00 | COc1ccc(-c2cnc3[nH]cc(C#Cc4ccccc4)c3c2)cc1OC [Compound 138, 5-(3,4-Dimethoxy-phenyl)-3-phenylethynyl-1H-pyrrolo[2,3-b]pyridine]
– | < 5.00 | > 5.00 | > 5.00 | COC(=O)c1cccc(C#Cc2c[nH]c3ncc(-c4ccc(OC)c(OC)c4)cc23)c1 [Compound 139, 3-[5-(3,4-Dimethoxy-phenyl)-1H-pyrrolo[2,3-b]pyridin-3-ylethynyl]-benzoic acid methyl ester]
– | < 5.00 | > 5.00 | > 5.00 | COc1ccc(-c2cnc3[nH]cc(C#Cc4cccc(C(=O)O)c4)c3c2)cc1OC [Compound 140, 3-[5-(3,4-Dimethoxy-phenyl)-1H-pyrrolo[2,3-b]pyridin-3-ylethynyl]-benzoic acid]
